Columns and labels:
[1] = Lipophilicity, log k of the compound at 100 ug/ml by micellar electrokinetic chromatography; format: physicochemical
Staphylococcus aureus [2] = assay: Antibacterial activity against Staphylococcus aureus ATCC 6538 cultured in MH medium assessed as reduction in bacterial growth incubated for 48 hrs by microbroth dilution method; format: functional; conditions: ATCC 6538, 48 h
Staphylococcus aureus [3] = assay: Bactericidal activity against Staphylococcus aureus ATCC 6538 cultured in MH medium assessed as reduction in bacterial survival incubated for 48 hrs by microbroth dilution method; format: functional; conditions: ATCC 6538, 48 h
Staphylococcus aureus [4] = assay: Antibacterial activity against methicillin resistant Staphylococcus aureus N315 cultured in MH medium assessed as reduction in bacterial growth incubated for 48 hrs by microbroth dilution method; format: functional; conditions: N315, 48 h
Staphylococcus aureus [5] = assay: Bactericidal activity against methicillin resistant Staphylococcus aureus N315 cultured in MH medium assessed as reduction in bacterial survival incubated for 48 hrs by microbroth dilution method; format: functional; conditions: N315, 48 h
[6] = test system: Staphylococcus epidermidis; assay: Antibacterial activity against Staphylococcus epidermidis ATCC 14990 cultured in MH medium assessed as reduction in bacterial growth incubated for 48 hrs by microbroth dilution method; format: functional; conditions: ATCC 14990, 48 h
[7] = test system: Staphylococcus epidermidis; assay: Bactericidal activity against Staphylococcus epidermidis ATCC 14990 cultured in MH medium assessed as reduction in bacterial survival incubated for 48 hrs by microbroth dilution method; format: functional; conditions: ATCC 14990, 48 h
Enterococcus hirae = assay: Antibacterial activity against Enterococcus hirae ATCC 1052 cultured in BHI medium assessed as reduction in bacterial growth incubated for 48 hrs by microbroth dilution method; format: functional; conditions: ATCC 1052, 48 h
Bacillus spizizenii [8] = assay: Antibacterial activity against Bacillus subtilis ATCC 6633 cultured in MH medium assessed as reduction in bacterial growth incubated for 48 hrs by microbroth dilution method; format: functional; conditions: ATCC 6633, 48 h
Bacillus spizizenii [9] = assay: Bactericidal activity against Bacillus subtilis ATCC 6633 cultured in MH medium assessed as reduction in bacterial survival incubated for 48 hrs by microbroth dilution method; format: functional; conditions: ATCC 6633, 48 h
Escherichia coli [10] = assay: Antibacterial activity against Escherichia coli ATCC 8739 cultured in MH medium assessed as reduction in bacterial growth incubated for 48 hrs by microbroth dilution method; format: functional; conditions: ATCC 8739, 48 h
Escherichia coli [11] = assay: Bactericidal activity against Escherichia coli ATCC 8739 cultured in MH medium assessed as reduction in bacterial survival incubated for 48 hrs by microbroth dilution method; format: functional; conditions: ATCC 8739, 48 h
Pseudomonas aeruginosa [12] = assay: Antibacterial activity against Pseudomonas aeruginosa ATCC 9027 cultured in MH medium assessed as reduction in bacterial growth incubated for 48 hrs by microbroth dilution method; format: functional; conditions: ATCC 9027, 48 h
Pseudomonas aeruginosa [13] = assay: Bactericidal activity against Pseudomonas aeruginosa ATCC 9027 cultured in MH medium assessed as reduction in bacterial survival incubated for 48 hrs by microbroth dilution method; format: functional; conditions: ATCC 9027, 48 h
Proteus vulgaris [14] = assay: Antibacterial activity against Proteus vulgaris NCTC 4635 cultured in MH medium assessed as reduction in bacterial growth incubated for 48 hrs by microbroth dilution method; format: functional; conditions: NCTC 4635, 48 h
Proteus vulgaris [15] = assay: Bactericidal activity against Proteus vulgaris NCTC 4635 cultured in MH medium assessed as reduction in bacterial survival incubated for 48 hrs by microbroth dilution method; format: functional; conditions: NCTC 4635, 48 h
Staphylococcus aureus [16] = assay: Antibacterial activity against methicillin resistant Staphylococcus aureus 6347 cultured in MH medium assessed as reduction in bacterial growth incubated for 48 hrs by microbroth dilution method; format: functional; conditions: Staphylococcus aureus, 6347, 48 h
Staphylococcus aureus [17] = assay: Bactericidal activity against methicillin resistant Staphylococcus aureus 6347 cultured in MH medium assessed as reduction in bacterial survival incubated for 48 hrs by microbroth dilution method; format: functional; conditions: Staphylococcus aureus, 6347, 48 h
[18] = test system: Staphylococcus epidermidis; assay: Antibacterial activity against methicillin resistant Staphylococcus epidermidis ATCC 13199 cultured in MH medium assessed as reduction in bacterial growth incubated for 48 hrs by microbroth dilution method; format: functional; conditions: ATCC 13199, 48 h
[19] = test system: Staphylococcus epidermidis; assay: Bactericidal activity against methicillin resistant Staphylococcus epidermidis ATCC 13199 cultured in MH medium assessed as reduction in bacterial survival incubated for 48 hrs by microbroth dilution method; format: functional; conditions: ATCC 13199, 48 h
Streptococcus pneumoniae [20] = assay: Antibacterial activity against Streptococcus pneumoniae cultured in MH medium assessed as reduction in bacterial growth incubated for 48 hrs by microbroth dilution method; format: functional
Streptococcus pneumoniae [21] = assay: Bactericidal activity against Streptococcus pneumoniae cultured in MH medium assessed as reduction in bacterial survival incubated for 48 hrs by microbroth dilution method; format: functional
Serratia marcescens [22] = assay: Antibacterial activity against Serratia marcescens ATCC 12795 cultured in MH medium assessed as reduction in bacterial growth incubated for 48 hrs by microbroth dilution method; format: functional; conditions: ATCC 12795, 48 h
Serratia marcescens [23] = assay: Bactericidal activity against Serratia marcescens ATCC 12795 cultured in MH medium assessed as reduction in bacterial survival incubated for 48 hrs by microbroth dilution method; format: functional; conditions: ATCC 12795, 48 h
Proteus vulgaris [24] = assay: Resistance index, ratio of MIC for Proteus vulgaris NCTC 4635 measured after 15 passages to MIC for Proteus vulgaris NCTC 4635 measured after 48 hrs incubation by microbroth dilution method; format: functional
[25] = test system: Staphylococcus epidermidis; assay: Ratio of gatifloxacin resistance index to compound resistance index for methicillin resistant Staphylococcus epidermidis ATCC 13199 by microbroth dilution method; format: functional
Escherichia coli [26] = assay: Antibacterial activity against […] Escherichia coli ATCC 8739 assessed as reduction in bacterial growth incubated for 48 hrs in presence of 50 ug/ml […], PAbetaN by microbroth dilution method; format: functional; conditions: ATCC 8739, 48 h
Escherichia coli [27] = assay: Bactericidal activity against […] Escherichia coli ATCC 8739 assessed as reduction in bacterial survival incubated for 48 hrs in presence of 50 ug/ml […], PAbetaN by microbroth dilution method; format: functional; conditions: ATCC 8739, 48 h
HEK293 [28] = assay: Cytotoxicity against human HEK293 cells assessed as cell viability upto 20 uM incubated for 72 hrs by MTT assay; format: cell-based; conditions: hek293, 72 h
HEK293 [29] = assay: Cytotoxicity against human HEK293 cells assessed as changes in cell morphology upto 20 uM incubated for 72 hrs by MTT assay; format: cell-based; conditions: hek293, 72 h
Proteus vulgaris [30] = assay: Antibacterial activity against Proteus vulgaris NCTC 4635 measured after 15 passages by microbroth dilution method; format: functional
[31] = biological target: T1, DNA gyrase (Escherichia coli) (UniProt P0AES6+P0AES4); assay: Inhibition of Escherichia coli DNA gyrase super-coiling activity using relaxed pNO1 DNA as substrate assessed as enzyme residual activity at 10 uM incubated for 30 mins by fluorescence assay relative to control; format: protein-complex assay
[32] = biological target: T1, DNA gyrase (Escherichia coli); assay: Inhibition of Escherichia coli DNA gyrase super-coiling activity using relaxed pNO1 DNA as substrate assessed as enzyme residual activity at 1 uM incubated for 30 mins by fluorescence assay relative to control; format: protein-complex assay

SMILES | log K [1] | MIC (Staphylococcus aureus [2]) | MBC (Staphylococcus aureus [3]) | MIC (Staphylococcus aureus [4]) | MBC (Staphylococcus aureus [5]) | MIC [6] | MBC [7] | MIC (Enterococcus hirae) | MIC (Bacillus spizizenii [8]) | MBC (Bacillus spizizenii [9]) | MIC (Escherichia coli [10]) | MBC (Escherichia coli [11]) | MIC (Pseudomonas aeruginosa [12]) | MBC (Pseudomonas aeruginosa [13]) | MIC (Proteus vulgaris [14]) | MBC (Proteus vulgaris [15]) | MIC (Staphylococcus aureus [16]) | MBC (Staphylococcus aureus [17]) | MIC [18] | MBC [19] | other results
COc1c(N2CC[N+]3(CN4C(C)=CC(C)=C(C(=O)O)C4=N3)C(C)C2)c(F)cc2c(=O)c(C(=O)O)cn(C3CC3)c12.[Cl-] (stereo not drawn) | -0.408 | 8 µg/mL | 16 µg/mL | 8 µg/mL | 8 µg/mL | 8 µg/mL | 16 µg/mL | > 512 µg/mL | 2 µg/mL | 2 µg/mL | 2 µg/mL | 2 µg/mL | 32 µg/mL | 256 µg/mL | 0.5 µg/mL | 0.5 µg/mL | 8 µg/mL | 16 µg/mL | 4 µg/mL | 8 µg/mL | MIC (Streptococcus pneumoniae [20]): 128 µg/mL; MBC (Streptococcus pneumoniae [21]): 256 µg/mL; MIC (Serratia marcescens [22]): 32 µg/mL; MBC (Serratia marcescens [23]): 32 µg/mL; Ratio (Proteus vulgaris [24]): 4; Ratio [25]: 2; MIC (Escherichia coli [26]): 1 µg/mL; MBC (Escherichia coli [27]): 2 µg/mL; Activity (HEK293 [28]): Non-Toxic; Activity (HEK293 [29]): Non-Toxic; MIC (Proteus vulgaris [30]): 2 µg/mL
C[C@@H]1CN(c2c(F)c(N)c3c(=O)c(C(=O)O)cn(C4CC4)c3c2F)C[C@H](C)[N+]12CN1C(=N2)C(C(=O)O)=Cc2ccccc21.[Cl-] (stereo partly drawn) | -0.07 | 8 µg/mL | 8 µg/mL | 32 µg/mL | 128 µg/mL | 8 µg/mL | 8 µg/mL | > 512 µg/mL | 4 µg/mL | 4 µg/mL | 4 µg/mL | 4 µg/mL | 64 µg/mL | 64 µg/mL | 2 µg/mL | 2 µg/mL | 32 µg/mL | 32 µg/mL | 16 µg/mL | 32 µg/mL | MIC (Streptococcus pneumoniae [20]): > 512 µg/mL; MIC (Serratia marcescens [22]): 64 µg/mL; MBC (Serratia marcescens [23]): 64 µg/mL; Activity [31]: 35%; Activity [32]: 73%; Activity (HEK293 [28]): Non-Toxic; Activity (HEK293 [29]): Non-Toxic
